Test results taken from ChEMBL document CHEMBL3872204, “Synthesis and immunopotentiating activity of novel isoxazoline functionalized coumarins” (Eur J Med Chem, 2016).
Active and inactive are the calls of the source. The rule behind the calls is not given here.

Tests used:
Splenic lymphocyte [1] = assay: Immunopotentiating activity in splenic lymphocytes (unknown origin) assessed as effect on proliferation by measuring cell viability at 10 ug/ml pretreated followed by incubation of lymphocytes with ConA for 48 hrs by MTT assay; format: functional, cell-based
Splenic lymphocyte [2] = assay: Immunopotentiating activity in splenic lymphocytes (unknown origin) assessed as effect on proliferation by measuring cell viability at 0.1 to 1 ug/ml pretreated followed by incubation of lymphocytes with LPS for 48 hrs by MTT assay; format: functional, cell-based
Splenic lymphocyte [3] = assay: Immunopotentiating activity in splenic lymphocytes (unknown origin) assessed as effect on proliferation by measuring cell viability at 0.1 to 1 ug/ml pretreated followed by incubation of lymphocytes with ConA for 48 hrs by MTT assay; format: functional, cell-based
Splenic lymphocyte [4] = assay: Immunopotentiating activity in splenic lymphocytes (unknown origin) assessed as effect on proliferation by measuring cell viability at 10 ug/ml pretreated followed by incubation of lymphocytes with LPS for 48 hrs by MTT assay; format: functional, cell-based
Splenic lymphocyte [5] = assay: Immunopotentiating activity in splenic lymphocytes (unknown origin) assessed as effect on proliferation by measuring cell viability pretreated followed by incubation of lymphocytes with LPS for 48 hrs by MTT assay; format: functional, cell-based
Mus musculus [6] = assay: Immunopotentiating activity in sheep RBC-immunized BALB/c mouse assessed as increase in isolated splenic […] proliferation administered orally for 14 days followed by incubation of isolated splenocytes with ConA for 72 hrs by MTT assay; format: functional
Mus musculus [7] = assay: Immunopotentiating activity in sheep RBC-immunized BALB/c mouse assessed as increase in macrophage production by measuring increase in NO production administered orally for 14 days followed by incubation with LPS for 48 hrs by Griess assay; format: functional
Mus musculus [8] = assay: Immunopotentiating activity in sheep RBC-immunized BALB/c mouse assessed as ratio of CD4-positive splenic T-cells to CD8-positive splenic T-cells at 0.1 mg/kg, po for 14 days by flow cytometry (RVB = 1.56 +/- 0.09); format: functional
Mus musculus [9] = assay: Immunopotentiating activity in sheep RBC-immunized BALB/c mouse assessed as increase in delayed-type hypersensitivity response by measuring left hind foot pad thickness at 0.001 mg/kg, po qd administered 2 hrs post immunization for 7 days measured 24 to 48 hrs post SRBC challenge by spheromicrometer method; format: functional, organism-based
Mus musculus [10] = assay: Immunopotentiating activity in sheep RBC-immunized BALB/c mouse assessed as CD4-positive splenic T-cells at 0.1 mg/kg, po for 14 days by flow cytometry (reference value: 20.7 +/- 0.9%); format: functional
Mus musculus [11] = assay: Immunopotentiating activity in sheep RBC-immunized BALB/c mouse assessed as increase in isolated splenic T-cell proliferation administered orally for 14 days followed by incubation of isolated splenocytes with LPS for 72 hrs by MTT assay; format: functional
Mus musculus [12] = assay: Immunopotentiating activity in sheep RBC-immunized BALB/c mouse assessed as CD4-positive splenic T-cells at 0.01 mg/kg, po for 14 days by flow cytometry (reference value: 20.7 +/- 0.9%); format: functional
Mus musculus [13] = assay: Immunopotentiating activity in sheep RBC-immunized BALB/c mouse assessed as CD4-positive T-cell content in spleen at 0.1 mg/kg, po for 14 days by flow cytometry (reference value: 2.7 +/- 0.12 10^7No_unit); format: functional
Mus musculus [14] = assay: Immunopotentiating activity in sheep RBC-immunized BALB/c mouse assessed as CD8-positive T-cell content in spleen at 0.1 mg/kg, po for 14 days by flow cytometry (reference value: 1.47 +/- 0.04 10^7No_unit); format: functional
Mus musculus [15] = assay: Immunopotentiating activity in sheep RBC-immunized BALB/c mouse assessed as CD8-positive splenic T-cells at 0.001 mg/kg, po for 14 days by flow cytometry (reference value: 13.3 +/- 0.34%); format: functional
Mus musculus [16] = assay: Immunopotentiating activity in sheep RBC-immunized BALB/c mouse assessed as CD8-positive splenic T-cells at 0.01 mg/kg, po for 14 days by flow cytometry (reference value: 13.3 +/- 0.34%); format: functional
Mus musculus [17] = assay: Immunopotentiating activity in sheep RBC-immunized BALB/c mouse assessed as CD4-positive splenic T-cells at 0.001 mg/kg, po for 14 days by flow cytometry (reference value: 20.7 +/- 0.9%); format: functional
Mus musculus [18] = assay: Immunopotentiating activity in sheep RBC-immunized BALB/c mouse assessed as increase in isolated splenic B-cell proliferation administered orally for 14 days followed by incubation of isolated splenocytes with LPS for 72 hrs by MTT assay; format: functional
Mus musculus [19] = assay: Immunopotentiating activity in sheep RBC-immunized BALB/c mouse assessed as increase in interferon-gamma production in splenocytes administered orally for 14 days followed by incubation with ConA for 48 hrs by ELISA; format: functional, cell-based
Splenic lymphocyte [20] = assay: Immunopotentiating activity in splenic lymphocytes (unknown origin) assessed as effect on proliferation by measuring cell viability pretreated followed by incubation of lymphocytes with ConA for 48 hrs by MTT assay; format: functional, cell-based
Mus musculus [21] = assay: Immunopotentiating activity in sheep RBC-immunized BALB/c mouse assessed as CD8-positive T-cell content in spleen at 0.001 mg/kg, po for 14 days by flow cytometry (reference value: 1.47 +/- 0.04 10^7No_unit); format: functional
Mus musculus [22] = assay: Immunopotentiating activity in sheep RBC-immunized BALB/c mouse assessed as increase in IL4 production in splenocytes administered orally for 14 days followed by incubation with ConA for 48 hrs by ELISA; format: functional, cell-based
Mus musculus [23] = assay: Immunopotentiating activity in sheep RBC-immunized BALB/c mouse assessed as CD8-positive splenic T-cells at 0.1 mg/kg, po for 14 days by flow cytometry (reference value: 13.3 +/- 0.34%); format: functional
Mus musculus [24] = assay: Immunopotentiating activity in sheep RBC-immunized BALB/c mouse assessed as B-cell activation by measuring IgG antibody titer in serum at 0.001 mg/kg, po for 14 days by hemagglutinination technique; format: functional, organism-based
Mus musculus [25] = species on record: Mus musculus; assay: Cytotoxicity in BALB/c mouse splenocytes at 100 ug/ml measured after 72 hrs by MTT assay; format: toxicity; conditions: splenocyte
Mus musculus [26] = assay: Immunopotentiating activity in sheep RBC-immunized BALB/c mouse assessed as ratio of CD4-positive splenic T-cells to CD8-positive splenic T-cells at 0.01 mg/kg, po for 14 days by flow cytometry (RVB = 1.56 +/- 0.09); format: functional
Mus musculus [27] = assay: Immunopotentiating activity in sheep RBC-immunized BALB/c mouse assessed as CD8-positive T-cell content in spleen at 0.01 mg/kg, po for 14 days by flow cytometry (reference value: 1.47 +/- 0.04 10^7No_unit); format: functional
Mus musculus [28] = assay: Immunopotentiating activity in sheep RBC-immunized BALB/c mouse assessed as increase in isolated splenic T-cell proliferation administered orally for 14 days followed by incubation of isolated splenocytes with ConA for 72 hrs by MTT assay; format: functional
Mus musculus [29] = assay: Immunopotentiating activity in sheep RBC-immunized BALB/c mouse assessed as CD4-positive T-cell content in spleen at 0.001 mg/kg, po for 14 days by flow cytometry (reference value: 2.7 +/- 0.12 10^7No_unit); format: functional
Mus musculus [30] = assay: Immunopotentiating activity in sheep RBC-immunized BALB/c mouse assessed as B-cell activation by measuring IgG antibody titer in serum at 0.1 mg/kg, po for 14 days by hemagglutinination technique; format: functional, organism-based
Mus musculus [31] = assay: Immunopotentiating activity in sheep RBC-immunized BALB/c mouse assessed as B-cell activation by measuring IgM antibody titer in serum at 0.001 mg/kg, po for 14 days measured on day 7 post dose by hemagglutinination technique; format: functional, organism-based
Mus musculus [32] = assay: Immunopotentiating activity in sheep RBC-immunized BALB/c mouse assessed as ratio of CD4-positive splenic T-cells to CD8-positive splenic T-cells at 0.001 mg/kg, po for 14 days by flow cytometry (RVB = 1.56 +/- 0.09); format: functional
Mus musculus [33] = assay: Immunopotentiating activity in sheep RBC-immunized BALB/c mouse assessed as CD4-positive T-cell content in spleen at 0.01 mg/kg, po for 14 days by flow cytometry (reference value: 2.7 +/- 0.12 10^7No_unit); format: functional
Mus musculus [34] = assay: Immunopotentiating activity in sheep RBC-immunized BALB/c mouse assessed as B-cell activation by measuring IgM antibody titer in serum at 0.01 mg/kg, po for 14 days measured on day 7 post dose by hemagglutinination technique; format: functional, organism-based
Mus musculus [35] = assay: Immunopotentiating activity in sheep RBC-immunized BALB/c mouse assessed as B-cell activation by measuring IgM antibody titer in serum at 0.1 mg/kg, po for 14 days measured on day 7 post dose by hemagglutinination technique; format: functional, organism-based
Mus musculus [36] = assay: Immunopotentiating activity in sheep RBC-immunized BALB/c mouse assessed as increase in IL2 production in splenocytes administered orally for 14 days followed by incubation with ConA for 48 hrs by ELISA; format: functional, cell-based
Mus musculus [37] = assay: Immunopotentiating activity in sheep RBC-immunized BALB/c mouse assessed as B-cell activation by measuring IgG antibody titer in serum at 0.01 mg/kg, po for 14 days by hemagglutinination technique; format: functional, organism-based

Compound | Activity (Splenic lymphocyte [1]) | Activity (Splenic lymphocyte [2]) | Activity (Splenic lymphocyte [3]) | Activity (Splenic lymphocyte [4]) | Activity (Splenic lymphocyte [5]) | Activity (Mus musculus [6]) | Activity (Mus musculus [7]) | Ratio (Mus musculus [8]) | Activity (Mus musculus [9]) | Activity (Mus musculus [10]) | Activity (Mus musculus [11]) | Activity (Mus musculus [12]) | Activity (Mus musculus [13]) | Activity (Mus musculus [14]) | Activity (Mus musculus [15]) | Activity (Mus musculus [16]) | Activity (Mus musculus [17]) | Activity (Mus musculus [18]) | Activity (Mus musculus [19]) | Activity (Splenic lymphocyte [20]) | also measured
O=c1ccc2ccc(O)cc2o1 | Active | Active | Active | Active |  |  |  |  |  |  |  |  |  |  |  |  |  |  |  |  | 
O=c1ccc2ccc(OCC3CC(c4ccc(Cl)cc4)=NO3)cc2o1 (configuration not stated) | Active | Active | Active | Active |  |  |  |  |  |  |  |  |  |  |  |  |  |  |  |  | 
COc1ccc(C2=NOC(COc3ccc4ccc(=O)oc4c3)C2)c(OC)c1 (configuration not stated) |  |  |  |  | Dose-dependent effect | Dose-dependent effect | Dose-dependent effect | 1.77 | Active | 35.3% | Dose-dependent effect | 27.2% | 1.67 ×10⁷ No_unit | 1.41 ×10⁷ No_unit | 15.4% | 16.2% | 20.3% | Dose-dependent effect | Dose-dependent effect | Dose-dependent effect | Activity (Mus musculus [21]): 1.19 ×10⁷ No_unit; Activity (Mus musculus [22]): Dose-dependent effect; Activity (Mus musculus [23]): 19.9%; Activity (Mus musculus [24]): Active; Activity (Mus musculus [25]): Non-Toxic; Ratio (Mus musculus [26]): 1.67; Activity (Mus musculus [27]): 1.29 ×10⁷ No_unit; Activity (Mus musculus [28]): Dose-dependent effect; Activity (Mus musculus [29]): 1.16 ×10⁷ No_unit; Activity (Mus musculus [30]): Active; Activity (Mus musculus [31]): Active; Ratio (Mus musculus [32]): 1.32; Activity (Mus musculus [33]): 1.54 ×10⁷ No_unit; Activity (Mus musculus [34]): Active; Activity (Mus musculus [35]): Active; Activity (Mus musculus [36]): Dose-dependent effect; Activity (Mus musculus [37]): Active
COc1ccccc1C1=NOC(COc2ccc3ccc(=O)oc3c2)C1 (configuration not stated) |  |  |  |  | Dose-dependent effect | Dose-dependent effect | Dose-dependent effect | 1.69 | Active | 31.1% | Dose-dependent effect | 24.2% | 1.51 ×10⁷ No_unit | 1.37 ×10⁷ No_unit | 15.4% | 15.3% | 20.3% | Dose-dependent effect | Dose-dependent effect | Dose-dependent effect | Activity (Mus musculus [21]): 0.88 ×10⁷ No_unit; Activity (Mus musculus [22]): Dose-dependent effect; Activity (Mus musculus [23]): 18.4%; Activity (Mus musculus [24]): Active; Activity (Mus musculus [25]): Non-Toxic; Ratio (Mus musculus [26]): 1.58; Activity (Mus musculus [27]): 1.18 ×10⁷ No_unit; Activity (Mus musculus [28]): Dose-dependent effect; Activity (Mus musculus [29]): 1.02 ×10⁷ No_unit; Activity (Mus musculus [30]): Active; Activity (Mus musculus [31]): Active; Ratio (Mus musculus [32]): 1.32; Activity (Mus musculus [33]): 1.31 ×10⁷ No_unit; Activity (Mus musculus [34]): Active; Activity (Mus musculus [35]): Active; Activity (Mus musculus [36]): Dose-dependent effect; Activity (Mus musculus [37]): Active
O=c1ccc2ccc(OCC3CC(c4ccc(Br)cc4)=NO3)cc2o1 (configuration not stated) | Active | Active | Active | Active |  |  |  |  |  |  |  |  |  |  |  |  |  |  |  |  | 
O=c1ccc2ccc(OCC3CC(c4ccc([N+](=O)[O-])cc4)=NO3)cc2o1 (configuration not stated) | Active | Active | Active | Active |  |  |  |  |  |  |  |  |  |  |  |  |  |  |  |  | 
